PMC5441580, “GPR40 partial agonist MK-2305 lower fasting glucose in the Goto Kakizaki rat via suppression of endogenous glucose production” (PLoS ONE, 2017)
“And” between values parts separate entries of the source, which are not always exact repeats. Identical values can stand only once. Blank lines part the entries; values can stand above or below the compound they belong to.

Legend:
[1] = test system: perfused db/db mouse livers; assay: isolated perfused liver study, 13C NMR, [2-13C] pyruvate; conditions: data not shown
Description: To evaluate whether GPR40 partial agonist treatment produced a direct effect on hepatic glucose production, we performed isolated perfused liver studies with ^13C NMR spectroscopy in which GPR40 agonists were dosed directly to the liver ex vivo. Mouse livers were chosen instead of rat livers due to size restrictions of the perfused liver apparatus. […] A detailed description of the perfused liver technique can be found elsewhere. Briefly, db/db mice were anesthetized (Nembutal IP, 100 mg/kg), the portal vein was cannulated and tied off, and the liver was excised and perfused with a pre-oxygenated Krebs-bicarbonate buffered solution. The liver was then placed into a 20 mm NMR tube and the gluconeogenic substrate [2-^13C] pyruvate (10 mM) was added to the perfusate plus either MK-2305 (10 μM) or vehicle (0.1% DMSO). […] These NMR signals were then converted to absolute units (μmoles) by comparison to ^13C NMR spectra of standard solutions acquired under identical conditions. Additional correction factors were included for ^13C-glycogen and ^13C-glucose to account for the fact that position 2 in pyruvate can end up at position 1, 2, 5, or 6 in glucose/glycogen due to the fumarase and triose phosphate isomerase reactions. The slope of each signal versus time was then used to calculate the following fluxes: glucose production, glycogen synthesis, and lactate production.

rat GPR40 (FFAR1) = target: T1, rat GPR40 (FFAR1) (Rattus norvegicus, UniProt Q8K3T4); assay: IP1 functional assay, CHO cells stably expressing rat GPR40; assay type: cell-based; conditions: representative curve Fig 1B
T1 construct: expressed in transfected cells
T1 sequence (Q8K3T4 whole entry): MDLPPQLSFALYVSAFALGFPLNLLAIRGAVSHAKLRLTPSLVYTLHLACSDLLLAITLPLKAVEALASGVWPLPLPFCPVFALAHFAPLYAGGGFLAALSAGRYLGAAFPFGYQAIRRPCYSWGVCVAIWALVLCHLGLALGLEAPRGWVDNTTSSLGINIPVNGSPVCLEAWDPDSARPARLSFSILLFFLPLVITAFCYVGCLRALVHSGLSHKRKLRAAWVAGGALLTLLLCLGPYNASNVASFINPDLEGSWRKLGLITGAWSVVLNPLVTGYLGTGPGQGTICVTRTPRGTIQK
Description: CHO Jump-IN cells stably expressing rat GPR40 or HEK293 Jump-IN cells stably expressing rat GPR120 were cultured in DMEM media supplemented with 10% dialyzed FBS, non-essential amino acids, penicillin/streptomycin, 10 μg/ml Blasticidin S HCL and 200 or 100 μg/ml Hygromycin B, respectively (Life Technologies). Cell stocks were maintained and grown in a sub-confluent state using standard cell culture procedures. The day before the experiment, the cells were harvested with non-enzymatic cell dissociation buffer and re-suspended in DMEM supplemented as described above at 0.15 million cells per ml. […] The seeded plates were incubated overnight at 37°C in a humidified environment.
On the day of the experiment, the growth media was removed from the assay plate by centrifugation using a BlueCatBio BlueWasher, protocol #21 “Light Dry” and 10 μl of IP1 stimulation buffer (prepared according to the Cisbio IP-one Tb HTRF kit) is added to each well. Test compounds were dissolved and serially diluted in DMSO as 200X the final assay concentration and 50 nl of the compound dilution was acoustically added to each well of the assay plates. The plates were then incubated for 60 minutes at room temperature and 10 μl of detection buffer (prepared according to the IP-one Tb HTRF kit) is added to each well of the assay plate. The plates were then incubated for one additional hour at room temperature. […] For each assay, a standard curve plate in which IP1 is titrated is also included. […] The % activation is then plotted versus the concentration of test compound and the dose response curve fitted to a standard 4-paramater non-linear regression model using a custom in-house developed software package. Maximal % activation and EC50 are then determined for each test compound.

GK rats [2] = assay: GK rat chronic efficacy, compound in feed for 20 days; assay type: in vivo; conditions: Day 7, ~6 hrs after food removal; 10mpk; chronic study; individual animals; 10 mg/kg
GK rats [3] = assay: as above; assay type: in vivo; conditions: for Morning (fed) Blood Glucose: Rosi 10 mpk in feed
Description: At the start of the study, fed glucose was measured at 8 A.M., and animals were selected and sorted into treatment groups based on ambient glucose (n = 10/male GK group, n = 6/male WKY control group). […] Fed blood glucose, food intake, and body weights were determined on days 0, 1, 3, 7, and 14 of study at 8 A.M. On days 7 and 14, food was removed for 5 h and plasma glucose was measured. Percent inhibitions were calculated as the percent reduction of blood glucose from the average value for vehicle controls. On day 14, blood was collected from the tail vein (20 μl) after the morning glucose measurement and after 5 h fast from a subset of n = 3 rats per treatment group to determine the ambient and fasted exposure of the compounds in circulation. The blood was stored at 4°C in 0.1 M sodium monocitrate for subsequent analysis. Animals were then re-fed their respective diet treatments. On day 20 of treatment at 8 A.M., blood glucose was measured and then animals were euthanized via CO2 asphyxiation. Blood and liver tissue were sampled, processed, and stored at -80°C until analysis.
Plasma was analyzed for triglycerides, NEFA, and HbA1C using a P Modular Roche Clinical Chemistry analyzer. Liver triglycerides were extracted as described by Bligh and Dyer, and were measured using the Infinity triglyceride assay kit (Thermo Scientific, Rockford, IL). Plasma insulin levels were measured via EIA (Mesoscale Discovery ELISA Kit, Gaithersburg MD).

[4] = plasma exposure of the compounds on day 14 of the chronic study; assay type: in vivo, rat; conditions: 10 mg/kg in feed, GK rats
Description: At the start of the study, fed glucose was measured at 8 A.M., and animals were selected and sorted into treatment groups based on ambient glucose (n = 10/male GK group, n = 6/male WKY control group). Animals were then placed on diet (LabDiet # 5001) that contained, or was devoid of, compound at the daily doses indicated. Fed blood glucose, food intake, and body weights were determined on days 0, 1, 3, 7, and 14 of study at 8 A.M. On days 7 and 14, food was removed for 5 h and plasma glucose was measured. Percent inhibitions were calculated as the percent reduction of blood glucose from the average value for vehicle controls. On day 14, blood was collected from the tail vein (20 μl) after the morning glucose measurement and after 5 h fast from a subset of n = 3 rats per treatment group to determine the ambient and fasted exposure of the compounds in circulation. The blood was stored at 4°C in 0.1 M sodium monocitrate for subsequent analysis. Animals were then re-fed their respective diet treatments. On day 20 of treatment at 8 A.M., blood glucose was measured and then animals were euthanized via CO2 asphyxiation. Blood and liver tissue were sampled, processed, and stored at -80°C until analysis.

diabetic humans = conditions: clinical trials; cited from earlier work
[5] = 10 mpk, following 20 days of treatment in the GK rat, individual animals

SMILES: O=C(O)c1ncccc1S [3-MPA, reference compound]
effect on gluconeogenesis in the perfused liver [1]: marked acute reductions

Receptor Activation (%) (rat GPR40 (FFAR1); Concentration 1e-6 M): 370%
Receptor Activation (%) (rat GPR40 (FFAR1); Concentration 1.50E-11 M): -18%
Receptor Activation (%) (rat GPR40 (FFAR1); Concentration 1.56E-08 M): 132%
Receptor Activation (%) (rat GPR40 (FFAR1); Concentration 2.44E-10 M): 11%
Receptor Activation (%) (rat GPR40 (FFAR1); Concentration 2.50E-07 M): 361%
Receptor Activation (%) (rat GPR40 (FFAR1); Concentration 3.91E-09 M): 23%
Receptor Activation (%) (rat GPR40 (FFAR1); Concentration 4.00E-12 M): -6%
Receptor Activation (%) (rat GPR40 (FFAR1); Concentration 6.10E-11 M): 2%
Receptor Activation (%) (rat GPR40 (FFAR1); Concentration 6.25E-08 M): 275%
Receptor Activation (%) (rat GPR40 (FFAR1); Concentration 9.77E-10 M): 18%
SMILES: COc1ccc(F)c(-c2ccc(COc3cccc([C@@H](CC(=O)O)C4CC4)c3)cc2C2=CCCC2(C)C)c1 [AM1638, reference compound]

SMILES: CCOC(=O)[C@H](C)NP(=O)(N[C@@H](C)C(=O)OCC)c1ccc(-c2nc(N)sc2CC(C)C)o1 [CS917, reference compound]
effect on gluconeogenesis in the perfused liver [1]: marked acute reductions

plasma exposure ([4]; day 14, fasted time point): ~0.7 µM
plasma exposure ([4]; day 14, fed time point): ~ 3 μM
SMILES: CN(CCOc1ccc(CC2SC(=O)NC2=O)cc1)c1ccccn1 (stereo not shown) [Rosiglitazone, reference compound]
Fasted blood glucose (GK rats [2]): 109 mg/dL and 132 mg/dL and 121 mg/dL and 119 mg/dL and 134 mg/dL and 110 mg/dL and 115 mg/dL and 116 mg/dL
effect on body weight (GK rats [3]; 10 mg/kg in feed, GK rats): steady increase in body weight
effect on food intake (GK rats [3]; 10 mg/kg in feed, GK rats): significant and consistent increase in food consumption beginning on day 3
% HBA1c (GK rats [3]; [5]): 4.4% and 4.2% and 4.3% and 4.7%
Liver Triglycerides (GK rats [3]; [5]): 5.5 mg/g tissue and 8.7 mg/g tissue and 7.2 mg/g tissue and 5 mg/g tissue and 3.9 mg/g tissue and 6.1 mg/g tissue and 3.1 mg/g tissue
Fasted plasma insulin (GK rats [3]; Day 7, 10mpk, individual animals, 10 mg/kg): 64.4 pg/mL and 7.9 pg/mL and 28.0 pg/mL and 0.0 pg/mL and 126.7 pg/mL and 13.3 pg/mL and 40.2 pg/mL and 147.0 pg/mL and 54.7 pg/mL
Fasted plasma insulin (GK rats [3]; Day 14, 10mpk, individual animals, 10 mg/kg): 82.7 pg/mL and 67.8 pg/mL and 78.9 pg/mL and 214.4 pg/mL and 804.3 pg/mL and 809.3 pg/mL and 0.0 pg/mL and 890.8 pg/mL and 292.0 pg/mL
Morning (fed) Blood Glucose (GK rats [3]; Day 0 (start of study), individual GK rats): 195 mg/dL and 181 mg/dL and 219 mg/dL and 203 mg/dL and 204 mg/dL and 243 mg/dL and 186 mg/dL and 233 mg/dL and 191 mg/dL and 282 mg/dL
Morning (fed) Blood Glucose (GK rats [3]; Day 1, individual GK rats): 211 mg/dL and 175 mg/dL and 218 mg/dL and 246 mg/dL and 213 mg/dL and 240 mg/dL and 207 mg/dL and 205 mg/dL and 198 mg/dL and 275 mg/dL
Morning (fed) Blood Glucose (GK rats [3]; Day 3, individual GK rats): 129 mg/dL and 177 mg/dL and 163 mg/dL and 175 mg/dL and 172 mg/dL and 174 mg/dL and 242 mg/dL
Morning (fed) Blood Glucose (GK rats [3]; Day 7, individual GK rats): 135 mg/dL and 125 mg/dL and 137 mg/dL and 118 mg/dL and 123 mg/dL
Morning (fed) Blood Glucose (GK rats [3]; Day 14, individual GK rats): 133 mg/dL and 134 mg/dL and 121 mg/dL and 132 mg/dL
Morning (fed) Blood Glucose (GK rats [3]; Day 20, individual GK rats): 126 mg/dL and 133 mg/dL and 128 mg/dL and 129 mg/dL and 127 mg/dL and 123 mg/dL
NEFA (mEq/L) (GK rats [3]; Rosi @ 10, 20 days of treatment, individual GK rats): 0.32 mEq/L and 0.33 mEq/L and 0.35 mEq/L and 0.75 mEq/L and 0.49 mEq/L and 0.54 mEq/L and 0.48 mEq/L and 0.39 mEq/L and 0.65 mEq/L
decrease in fed glucose vs. vehicle (GK rats [3]; day 3, 10 mg/kg in feed, GK rats, p < 0.05): 22%
reduction in fasting blood glucose vs. vehicle (GK rats [3]; day 7, 5 hr fast, 10 mg/kg in feed, GK rats): 16%
reduction in fasting blood glucose vs. vehicle (GK rats [3]; day 14, 5 hr fast, 10 mg/kg in feed, GK rats): 19%
plasma NEFA (GK rats [3]; day 20, 10 mg/kg in feed, GK rats, mean ± SEM, vehicle 0.37 ± 0.03, not significant): 0.48 ± 0.05 mEq/L
effect on circulating HbA1C levels (GK rats [3]; day 20, GK rats, all treatment groups): significantly reduced
effect on liver triglyceride levels (GK rats [3]; day 20, GK rats, vs. vehicle controls): significant decrease
effect on fasted plasma insulin (GK rats [3]; days 7 and 14, 5 hr fast, GK rats): no significant effects
Fasted blood glucose (GK rats [3]; second block of the table (day 14 per title), 10mpk, individual animals, 10 mg/kg): 124 mg/dl and 131 mg/dl (2×) and 114 mg/dl and 133 mg/dl and 134 mg/dl

SMILES: Cc1cc(OCCCS(C)(=O)=O)cc(C)c1-c1cccc(COc2ccc3c(c2)OC[C@H]3CC(=O)O)c1 [TAK-875, Fasiglifam]
effect on oral glucose tolerance, fasted plasma glucose, and hemoglobin HbA1C (diabetic humans): significant reductions
